# Test results taken from ChEMBL document CHEMBL1143570, “Architecture of the human urotensin II receptor: comparison of the binding domains of peptide and non-peptide urotensin II agonists” (J Med Chem, 2005).
# Target: T1, Urotensin-2 receptor (Homo sapiens, UniProt Q9UKP6)
# T1 sequence (Q9UKP6 whole entry): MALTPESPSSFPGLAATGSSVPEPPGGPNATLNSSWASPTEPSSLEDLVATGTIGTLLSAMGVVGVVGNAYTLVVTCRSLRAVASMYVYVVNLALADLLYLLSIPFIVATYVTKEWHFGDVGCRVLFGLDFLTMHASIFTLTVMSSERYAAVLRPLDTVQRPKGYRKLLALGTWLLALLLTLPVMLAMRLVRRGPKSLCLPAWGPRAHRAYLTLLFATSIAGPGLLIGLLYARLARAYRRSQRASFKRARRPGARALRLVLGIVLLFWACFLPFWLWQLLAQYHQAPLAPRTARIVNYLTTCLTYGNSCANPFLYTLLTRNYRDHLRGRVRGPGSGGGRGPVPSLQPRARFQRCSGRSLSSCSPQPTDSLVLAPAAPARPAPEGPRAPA
# Test: Agonist activity for human Urotensin 2 receptor
# Format: functional
row,EC50,SMILES
1,5 µM,CCN(CC)CCC1=C(c2ccccc2)NC(=O)N(C)C1c1ccc(Cl)cc1 (stereo not drawn)
2,6.3 µM,CCN(CC)CCC1C(c2ccccc2)=Nc2ccccc2SC1c1ccc(Cl)cc1 (stereo not drawn)
3,0.3 µM,CN(C)CCC1(c2ccc(Cl)cc2)Cc2ccccc2C(=O)O1 (stereo not drawn)
